Assay results from publication PMC4888613, “Antifilarial activity of diterpenoids from Taxodium distichum” (Parasites & Vectors, 2016).
“And” between values parts separate entries of the source, which are not always exact repeats. Equal entries are not always repeated. “Also recorded” adds a separate entry of the source. Where two headings read alike, the source gives them in different places.

Experiments:
[1] = test system: Brugia malayi microfilariae (Mf); assay: In vitro motility assay on microfilariae; type: cell-based; conditions: for IC50: read-out: IC50 for Mf in MA
Protocol: (§1) Microfilariae and adult worms were harvested from p.c. of the M. unguiculatus harbouring approximately 5–6 month-old B. malayi infection. The parasites were washed thoroughly with HBSS (pH 7.2) containing antibiotics (penicillin: 100 U/ml; streptomycin: 100 μg/ml) and used for the present study.
(§2) Motility and 3-(4,5-dimethylthiazol-2-yl)-2,5 diphenyltetrazolium bromide (MTT; Sigma-Aldrich, USA) reduction assays that indicate viability of the parasites were used. Test samples and ivermectin (purity 95 %; Sigma-Aldrich, USA) were dissolved in dimethyl sulfoxide (DMSO; Sigma-Aldrich, USA); the final concentration of DMSO in the incubation medium Hanks Balanced Salt Solution (HBSS; Sigma-Aldrich, USA) containing 100 U/ml penicillin and 100 μg/ml streptomycin (Sigma-Aldrich, USA), was kept ≤ 0.1 %. Diethylcarbamazine-citrate (DEC-C; purity 100 %; Sigma-Aldrich, USA) solution was prepared in sterile distilled water. HBSS containing DMSO (≤ 0.1 %) alone was used as negative control.
(§3) In vitro efficacy of the test agents and reference drugs was assessed on mf (40–50 mf/100 μl/well) in a 96-well cell culture plate (Nunc, Denmark) and on adult female worms (1 worm/ml/well) in a 48-well plate (Nunc, Denmark). The assays were run in triplicates.
(§4) Motility assay using mf and adult worms was carried out as described elsewhere. Changes in parasite motility was assessed under a microscope and scored as: 0 = dead (100 %); 1-4 = loss of motility (1 = 75 %; 2 = 50 %; 3 = 25 %; and 4 = no loss of motility). The experiment was repeated twice.
(§5) IC50 and CC50 of the test agents were determined using the method described elsewhere. […] The experiments were repeated twice.
(§6) Data were transferred to a graphic program (MS Excel) and IC50 and CC50 were calculated by linear interpolation between the two concentrations above and below 50 % inhibition.

CC50 cytotoxicity assay = type: cell-based, African green monkey; conditions: African green monkey
Protocol: (§7) The assay was run in replicates in each of the two independent experiments.
as §6

[2] = test system: Brugia malayi adult worms (AW); assay: MTT reduction assay on adult female worms; type: cell-based; conditions: for inhibition at 125 µg/mL: Brugia malayi, read-out: Mean % inhibition in MTT reduction by AW
Protocol: as §2, §3
MTT-reduction assay was carried out using adult worms as described elsewhere. The viability of the treated worms was assessed by calculating per cent inhibition in MTT-reduction potential of the treated worms over DMSO treated control parasites. A hundred percent inhibition in motility of female parasites or mf and or ≥ 50 % inhibition in MTT-reduction potential of the treated female parasites were considered to indicate positive antifilarial activity.
as §5

[3] = test system: Brugia malayi adult worms (AW); assay: In vitro motility assay on adult female worms; type: cell-based; conditions: for IC50: read-out: IC50 for AW in MA
Protocol: as §1, §2, §3, §4, §5, §6

Brugia malayi [4] = assay: B. malayi-M. coucha model (secondary screening, L3 induced infection); type: in vivo, Mastomys coucha; conditions: for Macrofilaricidal activity (reduction in adult worm recovery over untreated control): DEC-C 50 mg/kg s.c. x 5 days, animals killed day 91 p.i.t.; for Sterile female worms: of surviving female parasites, day 91 p.i.t., control about 28 %; for Course of microfilaraemia: up to day 91 p.i.t.; for Regression line of microfilarial counts against days: trend of post-treatment microfilaraemia in Fig. 5a
Description: (§8) Meriones unguiculatus bearing intraperitoneally instilled adult worms and M. coucha inoculated with B. malayi L3 and showing microfilaremia in peritoneal cavity on day 3 post adult worm transplantation (p.a.t.) and progressive rise in microfilaraemia in peripheral circulation from day 120–180 post larval inoculation (p.l.i.), were employed as primary and secondary screening models, respectively, for assaying the antifilarial efficacy of the test agents.
(§9) The test agents were pulverised to fine powder and suspended in 1 % gum acacia/0.1 % Tween-80 in sterile distilled water. DEC-C and ivermectin were prepared in distilled water and ≤ 0.1 % Tween-80, respectively. The suspensions/solutions of the agents were prepared daily before administration to the animals.
(§10) Compounds K003 and K004 were given at 100 mg/kg body weight, subcutaneously (s.c.). The reference drugs DEC-C and ivermectin were administered to M. unguiculatus at 25 and 1 mg/kg body weight, respectively, while the M. coucha model received DEC-C at 50 mg/kg, body weight. […] Infected animals treated with vehicle only were used as control.
Mastomys coucha harbouring 5–7 month-old (L3 induced) B. malayi infection and showing progressive rise in microfilaraemia was used as secondary screening model. Mf count was recorded in peripheral blood (10 μl tail blood) just before initiation of the treatment (day 0), on day 7/8 and thereafter at weekly intervals till day 91 p.i.t. The animals were killed on day 91 p.i.t.
(§11) As a standard practice (following an accepted protocol) all the M. unguiculatus and M. coucha treated with test agents and vehicle were observed daily for their general health and behaviour (cage side observations) throughout the course of treatment and thereafter till termination of the experiment.
(§12) Microfilaricidal efficacy of the test agents was evaluated at each time point p.i.t and expressed as percent change in mf count over the pretreatment level.
(§13) Macrofilaricidal/adulticidal efficacy of the agents was assessed by calculating percent reduction in adult worm recovery in treated animals over untreated animals. Embryostatic/embryotoxic effect of agents was assessed by examining the uterine contents of female worms using the method described elsewhere and the percent of sterilised worms was determined from total female worms recovered from the treated and control animals.
Statistical analyses were carried out using GraphPad Prism 3.0 software. Results were expressed as the mean ± standard deviation (S.D.) of data obtained from 4–6 animals in two experiments. The data were analysed by Student’s ‘t’ test and one-way ANOVA followed by Tukey’s multiple comparison test, as appropriate. Differences with P < 0.05 were considered significant. The microfilaricidal efficacy of antifilarials was determined by comparing the slopes of control, K003 and DEC treated groups. The slopes of the regression line were compared by standard procedure.

Brugia malayi [5] = assay: B. malayi-M. unguiculatus model (primary screening, intraperitoneal adult worm transplant); type: in vivo, Meriones unguiculatus; conditions: for Effect on mf in peritoneal cavity / Sterilised female worm count / Worms recovered, Total / Sterilised female worms (%) (embryostatic activity) / Total worms, % reduction over untreated (macrofilaricidal activity): doses as in Table 2; for Sterilised female worm count / Worms recovered, Total / Worms recovered, Female / Worms recovered, Male: mean ± SD; for Sterilised female worm count / Worms recovered, Total / Worms recovered, Female / Worms recovered, Male / Sterilised female worms (%) (embryostatic activity) / Total worms, % reduction over untreated (macrofilaricidal activity): day 56 p.i.t.; for Worms recovered, Total: A001: the 5 of 6 animals without worms; for Worms recovered, Female / Worms recovered, Male: x 5 days: A001 500 mg/kg p.o., K003/K004 100, ivermectin 1, DEC-C 25 mg/kg s.c.; for Effect on adult worms: ivermectin 1 mg/kg
Description: as §8, §9, §10
Male M. unguiculatus 8–10 weeks old (40–45 g) transplanted intraperitoneally with freshly isolated adult worms from B. malayi-infected M. unguiculatus were used for primary screening of test agents. On day 3 p.a.t., the peritoneal fluid was aspirated and checked for the presence of mf. The treatment was started on day 7/8 p.a.t. and continued for 5 consecutive days. On day 7/8 post-initiation of treatment (p.i.t) and thereafter at fortnightly intervals, the peritoneal fluid was examined under microscope to assess the condition of mf. All animals were killed on day 56 p.i.t. and parasites were collected from p.c., counted and examined for their viability and motility under microscope.
as §11, §12, §13

VERO Cell line C1008 = assay: CC50 cytotoxicity assay; type: cell-based, African green monkey; conditions: reference drugs, values in μM
Protocol: as §7, §6

[6] = 100 % reduction in motility (death) of microfilariae
[7] = Brugia malayi, 50 % inhibition in motility of microfilariae
[8] = VERO C1008 cells (African green monkey kidney cells), concentration at which 50 % of VERO cells are killed, read-out: CC50
[9] = over DMSO control, test conc.: 500 μg/ml extract/fractions, 125 μg/ml compounds, 1000 μM DEC, 10/20 μM ivermectin
[10] = 100 % reduction in motility (death) of adult worms
[11] = Brugia malayi, 50 % inhibition in motility of adult worms
[12] = Brugia malayi, reference drugs, values in μM

In the case of `C=C1CCC2C(C)(C)C(OC(C)=O)CC[C@@]2(C)C1CC/C(C)=C/C(=O)O` (some centres unmarked) [Compound K001, 3-Acetoxylabda-8(20),13-diene-15-oic acid], the “LC100 for Mf in MA” value [1, 6] was 250 µg/mL, the IC50 [1, 7] was 88.4 µg/mL and the CC50 (CC50 cytotoxicity assay; [8]) was 697 µg/mL. For the same compound, the inhibition at 125 µg/mL [2, 9] was 76.9%, the “LC100 for AW in MA” value [3, 10] was 62.50 µg/mL and the IC50 [3, 11] was 41.2 µg/mL.

In the case of `CC[C@H](CC[C@@H](C)[C@H]1CC[C@H]2[C@@H]3CC=C4C[C@@H](O)CC[C@]4(C)[C@H]3CC[C@]12C)C(C)C` [Compound K002, Beta-sitosterol], the “LC100 for Mf in MA” value [1, 6] was > 250 µg/mL, the IC50 ([1]; Brugia malayi) was > 250 µg/mL and the inhibition at 125 µg/mL [2] was 38%. For the same compound, the “LC100 for AW in MA” value [3, 10] was > 250 µg/mL and the IC50 ([3]; Brugia malayi) was > 250 µg/mL.

With `C=C1CCC2C(C)(C)CCC[C@@]2(C)C1CC/C(C)=C/C(=O)O` (some centres unmarked) [Compound K003, labda-8(20),13-diene-15-oic acid] the “LC100 for Mf in MA” value [1, 6] was 31.25 µg/mL, the IC50 [1, 7] was 18.6 µg/mL and the “Reduction in motility of mf” value ([1]; in vitro) was 100%. For the same compound, the “Macrofilaricidal activity (reduction in adult worm recovery over untreated control)” value (Brugia malayi [4]) was ~ 54% and 53.94%, the Sterile female worms (Brugia malayi [4]) was > 36% and the “Course of microfilaraemia” value (Brugia malayi [4]; peripheral blood) was “had more or less no effect on microfilaraemia till day 42 p.i.t., but thereafter microfilaraemia stopped increasing as compared to control; also recorded: stopped any further rise in microfilaraemia after day 42 p.i.t”. The “Regression line of microfilarial counts against days” value (Brugia malayi [4]) was 183.65 ± 0.82 days, the CC50 (CC50 cytotoxicity assay; [8]) was 180 µg/mL and the inhibition at 125 µg/mL [2, 9] was > 80%. For the same compound, the “Mean % inhibition in MTT reduction by AW” value [2, 9] was 82.05%, the “Effect on mf in peritoneal cavity” value (Brugia malayi [5]) was “ineffective against mf” and the “Sterilised female worm count” value (Brugia malayi [5]) was 8.00 ± 0.71. The “Worms recovered, Total” value (Brugia malayi [5]) was 8.40 ± 1.14, the “Worms recovered, Female” value (Brugia malayi [5]) was 8.00 ± 0.71 and the “Worms recovered, Male” value (Brugia malayi [5]) was 0.40 ± 0.89. The “LC100 for AW in MA” value [3, 10] was 125 µg/mL, the IC50 [3, 11] was 74.3 µg/mL and the “Reduction in motility of adult worms” value ([3]; in vitro) was 100%.

For `CCN(CC)C(=O)N1CCN(C)CC1` [DEC-C, Diethylcarbamazine-citrate], the IC50 [1, 12] was 297 µM, the “LC100 for Mf in MA” value ([1]; reference drugs, values in μM) was 500 µM and the “Macrofilaricidal activity (reduction in adult worm recovery over untreated control)” value (Brugia malayi [4]) was “around 26.47%”. For the same compound, the “Reduction in microfilarial count on day 7/8 p.i.t.” value (Brugia malayi [4]; DEC-C 50 mg/kg, peripheral blood) was > 80%, the Sterile female worms (Brugia malayi [4]) was 20% and the “Course of microfilaraemia” value (Brugia malayi [4]; peripheral blood) was “gradually increased and relapsed by day 49 p.i.t.; the count further increased rapidly and crossed the pretreatment level by day 56 p.i.t”. The “Regression line of microfilarial counts against days” value (Brugia malayi [4]) was -21.04 + 2.95 days, the CC50 (CC50 cytotoxicity assay) was 9000 µM and the “Effect on female reproductive potential” value (Brugia malayi [5]; DEC-C 25 mg/kg s.c. x 5 days) was “did not affect mf count or female reproductive potential”. For the same compound, the “Effect on mf in peritoneal cavity” value (Brugia malayi [5]) was “did not affect mf count”, the “Sterilised female worms (%) (embryostatic activity)” value (shortened to “Sterilised female worms (%)”) (Brugia malayi [5]) was “(7.86 ± 11.41) %” and the “Total worms, % reduction over untreated (macrofilaricidal activity)” value (Brugia malayi [5]) was “(22.03) %”. The “Effect on adult worms” value (Brugia malayi [5]; DEC-C 25 mg/kg s.c. x 5 days) was “mild macrofilaricidal activity”, the “Sterilised female worm count” value (Brugia malayi [5]) was 0.60 ± 0.89 and the “Worms recovered, Total” value (Brugia malayi [5]) was 9.20 ± 1.48. For the same compound, the “Worms recovered, Female” value (Brugia malayi [5]) was 6.60 ± 1.14, the “Worms recovered, Male” value (Brugia malayi [5]) was 2.60 ± 0.55 and the IC50 [3, 12] was 315 µM. For the same compound, the “LC100 for AW in MA” value ([3]; reference drugs, values in μM) was 1000 µM.

For ivermectin, the “LC100 for Mf in MA” value ([1]; reference drugs, values in μM) was 2.5 µM, the IC50 ([1]; reference drugs, values in μM) was 1.57 µM and the CC50 (VERO Cell line C1008) was 250 µM. The “Mean % inhibition in MTT reduction by AW” value [2, 9] was 5.80%, the “Effect on mf in peritoneal cavity” value (Brugia malayi [5]) was “did not affect mf in p.c” and the “Sterilised female worms (%)” value (Brugia malayi [5]) was “(44.29 ± 5.15) %”. The “Total worms, % reduction over untreated (macrofilaricidal activity)” value (Brugia malayi [5]) was “(22.43) %”, the “Sterilised female worms (%)” value (Brugia malayi [5]; listed as ivermectin) was 44% and the “Effect on adult worms” value (Brugia malayi [5]; DEC-C 25 mg/kg s.c. x 5 days) was “mild but not statistically significant effect on adult worms”. The “Sterilised female worm count” value (Brugia malayi [5]) was 2.75 ± 0.96, the “Worms recovered, Female” value (Brugia malayi [5]) was 6.25 ± 1.50 and the “Worms recovered, Male” value (Brugia malayi [5]) was 2.75 ± 0.96. The “LC100 for AW in MA” value ([3]; reference drugs, values in μM) was 5 µM and the IC50 ([3]; reference drugs, values in μM) was 3.05 µM.
